Measured values taken from the NIST ThermoML archive (doi:10.1021/je800110r).
“And” between values parts separate entries of the source, which are not always exact repeats. Identical values can stand only once. ± gives the expanded uncertainty stated by the source.

Details: 303.16 K, Liquid, Vibrating tube method

Structure (SMILES): CCCCCCCCCC [decane]
- mass density (4941 kPa): 726.2 ± 2 kg/m3
- mass density (4955 kPa): 726.3 ± 2 kg/m3
- mass density (4969 kPa): 726.3 ± 2 kg/m3
- mass density (4979 kPa): 726.4 ± 2 kg/m3
- mass density (4994 kPa): 726.4 ± 2 kg/m3
- mass density (5007 kPa): 726.3 ± 2 kg/m3
- mass density (5019 kPa): 726.4 ± 2 kg/m3
- mass density (5029 kPa): 726.4 ± 2 kg/m3
- mass density (5041 kPa): 726.3 ± 2 kg/m3
- mass density (5052 kPa): 726.3 ± 2 kg/m3
- mass density (5065 kPa): 726.4 ± 2 kg/m3
- mass density (5075 kPa): 726.5 ± 2 kg/m3
- mass density (5091 kPa): 726.4 ± 2 kg/m3
- mass density (5107 kPa): 726.5 ± 2 kg/m3
- mass density (5119 kPa): 726.6 ± 2 kg/m3
- mass density (5129 kPa): 726.5 ± 2 kg/m3
- mass density (5140 kPa): 726.5 ± 2 kg/m3
- mass density (5153 kPa): 726.4 ± 2 kg/m3
- mass density (5167 kPa): 726.5 ± 2 kg/m3
- mass density (5177 kPa): 726.4 ± 2 kg/m3
- mass density (5193 kPa): 726.4 ± 2 kg/m3
- mass density (5209 kPa): 726.4 ± 2 kg/m3
- mass density (5220 kPa): 726.6 ± 2 kg/m3
- mass density (5236 kPa): 726.5 ± 2 kg/m3
- mass density (5251 kPa): 726.5 ± 2 kg/m3
- mass density (5261 kPa): 726.5 ± 2 kg/m3
- mass density (5276 kPa): 726.5 ± 2 kg/m3
- mass density (5292 kPa): 726.5 ± 2 kg/m3
- mass density (5309 kPa): 726.5 ± 2 kg/m3
- mass density (5318 kPa): 726.4 ± 2 kg/m3
- mass density (5331 kPa): 726.6 ± 2 kg/m3
- mass density (5342 kPa): 726.7 ± 2 kg/m3
- mass density (5359 kPa): 726.6 ± 2 kg/m3
- mass density (5374 kPa): 726.6 ± 2 kg/m3
- mass density (5385 kPa): 726.6 ± 2 kg/m3
- mass density (5399 kPa): 726.5 ± 2 kg/m3
- mass density (5412 kPa): 726.5 ± 2 kg/m3
- mass density (5427 kPa): 726.7 ± 2 kg/m3
- mass density (5443 kPa): 726.6 ± 2 kg/m3
- mass density (5459 kPa): 726.7 ± 2 kg/m3
- mass density (5473 kPa): 726.7 ± 2 kg/m3
- mass density (5488 kPa): 726.8 ± 2 kg/m3
- mass density (5501 kPa): 726.6 ± 2 kg/m3
- mass density (5514 kPa): 726.8 ± 2 kg/m3
- mass density (5532 kPa): 726.8 ± 2 kg/m3
- mass density (5548 kPa): 726.7 ± 2 kg/m3
- mass density (5562 kPa): 726.8 ± 2 kg/m3
- mass density (5576 kPa): 726.8 ± 2 kg/m3
- mass density (5593 kPa): 726.8 ± 2 kg/m3
- mass density (5607 kPa): 726.8 ± 2 kg/m3
- mass density (5626 kPa): 726.8 ± 2 kg/m3
- mass density (5642 kPa): 726.8 ± 2 kg/m3
- mass density (5655 kPa): 726.8 ± 2 kg/m3
- mass density (5674 kPa): 726.9 ± 2 kg/m3
- mass density (5690 kPa): 726.9 ± 2 kg/m3
- mass density (5705 kPa): 726.8 ± 2 kg/m3
- mass density (5723 kPa): 727 ± 2 kg/m3
- mass density (5738 kPa): 726.9 ± 2 kg/m3
- mass density (5751 kPa): 726.9 ± 2 kg/m3
- mass density (5770 kPa): 727 ± 2 kg/m3
- mass density (5791 kPa): 727 ± 2 kg/m3
- mass density (5803 kPa): 726.9 ± 2 kg/m3
- mass density (5819 kPa): 727 ± 2 kg/m3
- mass density (5834 kPa): 726.9 ± 2 kg/m3
- mass density (5851 kPa): 726.9 ± 2 kg/m3
- mass density (5864 kPa): 727 ± 2 kg/m3
- mass density (5873 kPa): 727 ± 2 kg/m3
- mass density (5878 kPa): 727 ± 2 kg/m3
- mass density (5884 kPa): 727 ± 2 kg/m3
- mass density (5887 kPa): 727.1 ± 2 kg/m3
- mass density (5896 kPa): 727.1 ± 2 kg/m3
- mass density (5908 kPa): 727.1 ± 2 kg/m3
- mass density (5926 kPa): 727.1 ± 2 kg/m3
- mass density (5940 kPa): 727 ± 2 kg/m3
- mass density (5954 kPa): 727 ± 2 kg/m3
- mass density (5971 kPa): 727.1 ± 2 kg/m3
- mass density (5986 kPa): 727.1 ± 2 kg/m3
- mass density (6008 kPa): 727 ± 2 kg/m3
- mass density (6029 kPa): 727.1 ± 2 kg/m3
- mass density (6044 kPa): 727.2 ± 2 kg/m3
- mass density (6063 kPa): 727 ± 2 kg/m3
- mass density (6080 kPa): 727.3 ± 2 kg/m3
- mass density (6100 kPa): 727.2 ± 2 kg/m3
- mass density (6118 kPa): 727.1 ± 2 kg/m3
- mass density (6139 kPa): 727.3 ± 2 kg/m3
- mass density (6161 kPa): 727.3 ± 2 kg/m3
- mass density (6178 kPa): 727.2 ± 2 kg/m3
- mass density (6196 kPa): 727.2 ± 2 kg/m3
- mass density (6201 kPa): 727 ± 2 kg/m3
- mass density (6204 kPa): 727.3 ± 2 kg/m3
- mass density (6205 kPa): 727.3 ± 2 kg/m3
- mass density (6209 kPa): 727.3 ± 2 kg/m3
- mass density (6210 kPa): 727.2 ± 2 kg/m3
- mass density (6211 kPa): 727.3 ± 2 kg/m3
- mass density (6212 kPa): 727.3 ± 2 kg/m3
- mass density (6213 kPa): 727.3 ± 2 kg/m3
- mass density (6214 kPa): 727.2 ± 2 kg/m3
- mass density (6215 kPa): 727.3 ± 2 kg/m3 and 727.2 ± 2 kg/m3
- mass density (6216 kPa): 727.2 ± 2 kg/m3 and 727.3 ± 2 kg/m3 and 727.4 ± 2 kg/m3
- mass density (6222 kPa): 727.3 ± 2 kg/m3
- mass density (6239 kPa): 727.2 ± 2 kg/m3
- mass density (6255 kPa): 727.3 ± 2 kg/m3
- mass density (6262 kPa): 727.4 ± 2 kg/m3
- mass density (6278 kPa): 727.2 ± 2 kg/m3
- mass density (6282 kPa): 727.3 ± 2 kg/m3
- mass density (6283 kPa): 727.3 ± 2 kg/m3
- mass density (6306 kPa): 727.4 ± 2 kg/m3
- mass density (6327 kPa): 727.3 ± 2 kg/m3
- mass density (6345 kPa): 727.4 ± 2 kg/m3
- mass density (6368 kPa): 727.4 ± 2 kg/m3
- mass density (6383 kPa): 727.4 ± 2 kg/m3
- mass density (6399 kPa): 727.5 ± 2 kg/m3
- mass density (6414 kPa): 727.4 ± 2 kg/m3
- mass density (6427 kPa): 727.5 ± 2 kg/m3
- mass density (6451 kPa): 727.5 ± 2 kg/m3
- mass density (6470 kPa): 727.5 ± 2 kg/m3
- mass density (6485 kPa): 727.6 ± 2 kg/m3
- mass density (6507 kPa): 727.4 ± 2 kg/m3
- mass density (6524 kPa): 727.5 ± 2 kg/m3
- mass density (6545 kPa): 727.6 ± 2 kg/m3
- mass density (6560 kPa): 727.5 ± 2 kg/m3
- mass density (6580 kPa): 727.5 ± 2 kg/m3
- mass density (6598 kPa): 727.6 ± 2 kg/m3
- mass density (6621 kPa): 727.7 ± 2 kg/m3
- mass density (6642 kPa): 727.6 ± 2 kg/m3
- mass density (6661 kPa): 727.7 ± 2 kg/m3
- mass density (6684 kPa): 727.7 ± 2 kg/m3
- mass density (6705 kPa): 727.6 ± 2 kg/m3
- mass density (6721 kPa): 727.6 ± 2 kg/m3
- mass density (6735 kPa): 727.7 ± 2 kg/m3
- mass density (6759 kPa): 727.7 ± 2 kg/m3
- mass density (6783 kPa): 727.8 ± 2 kg/m3
- mass density (6799 kPa): 727.7 ± 2 kg/m3
- mass density (6818 kPa): 727.8 ± 2 kg/m3
- mass density (6841 kPa): 727.7 ± 2 kg/m3
- mass density (6864 kPa): 727.8 ± 2 kg/m3
- mass density (6881 kPa): 727.9 ± 2 kg/m3
